The text below walks through data of patent publication US10745377B2, “Piperidine or piperazine linked imidazole and triazole derivatives and methods of use” (MERCK SHARP & DOHME CORP., priority 2013, dated 2020).

Where two headings read alike, the source gives them in different places.

Holding throughout (type): biochemical
The target in one experiment is T1, CYP2D6 (Homo sapiens, UniProt P10635).
T1 construct: 0.1 mg/mL protein human liver microsomes (BD Gentest); tissue BD Gentest; host or cells: human liver microsomes
As to the kind of experiment: Cocktail assay for CYPs in human liver microsomes: CYP2D6 (dextromethorphan O-demethylation). The note with it: 5 μM dextromethorphan, 10 min at 37° C., 6 concentrations up to 10 μM.

The next experiment addresses T2, CYP2C19 (Homo sapiens, UniProt P33261).
T2 construct: 0.1 mg/mL protein human liver microsomes (BD Gentest); tissue BD Gentest; host or cells: human liver microsomes
As to the kind of experiment: Cocktail assay for CYPs in human liver microsomes: CYP2C19 (mephenytoin 4′-hydroxylation). The note with it: 30 μM mephenytoin, 10 min at 37° C., 6 concentrations up to 10 μM. A general note: Liver microsomes are vesicles of endoplasmic reticulum, rich in cytochrome P450 enzymes.

In the next experiment the target is T3, CYP2C9 (Homo sapiens, UniProt P11712).
T3 construct: 0.1 mg/mL protein human liver microsomes (BD Gentest); tissue BD Gentest; host or cells: human liver microsomes
As to the kind of experiment: Cocktail assay for CYPs in human liver microsomes: CYP2C9 (diclofenac 4′-hydroxylation). As to conditions: 5 μM diclofenac, 10 min at 37° C., 6 concentrations up to 10 μM.

The next experiment deals with T4, CYP1A2 (Homo sapiens, UniProt P05177).
T4 construct: 0.1 mg/mL protein human liver microsomes (BD Gentest); tissue BD Gentest; host or cells: human liver microsomes
T4 sequence (P05177 1-516): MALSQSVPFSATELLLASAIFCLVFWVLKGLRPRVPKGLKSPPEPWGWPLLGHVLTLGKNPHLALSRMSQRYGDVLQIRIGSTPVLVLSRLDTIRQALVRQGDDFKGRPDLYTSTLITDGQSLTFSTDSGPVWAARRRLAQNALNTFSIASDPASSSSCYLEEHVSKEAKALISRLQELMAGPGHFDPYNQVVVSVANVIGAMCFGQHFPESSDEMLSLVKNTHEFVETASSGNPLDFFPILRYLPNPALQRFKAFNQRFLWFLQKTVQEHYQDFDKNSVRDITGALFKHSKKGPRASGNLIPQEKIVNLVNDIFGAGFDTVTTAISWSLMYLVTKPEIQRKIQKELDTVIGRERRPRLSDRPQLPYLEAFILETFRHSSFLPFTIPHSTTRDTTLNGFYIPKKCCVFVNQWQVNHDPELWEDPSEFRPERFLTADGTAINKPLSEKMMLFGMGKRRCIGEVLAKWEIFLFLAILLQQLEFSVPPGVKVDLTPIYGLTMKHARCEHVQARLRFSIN
Put plainly: Cocktail assay for CYPs in human liver microsomes: CYP1A2 (phenacetin O-deethylation).

The target of another experiment is T5, CYP3A4 (Homo sapiens, UniProt P08684).
T5 construct: 0.1 mg/mL protein human liver microsomes (BD Gentest); tissue BD Gentest; host or cells: human liver microsomes
As to the kind of experiment: Cocktail assay for CYPs in human liver microsomes: CYP3A4 (midazolam 1′-hydroxylation). As to conditions: 2 μM midazolam, 10 min at 37° C., 6 concentrations up to 10 μM.

Setting [1] is: human liver microsomes 0.1 mg/mL, read-out: IC50 (nM) CYP2D6.
Where [2] appears, read: human liver microsomes 0.1 mg/mL, read-out: IC50 (nM) CYP2C19.
Where [3] appears, read: human liver microsomes 0.1 mg/mL, read-out: IC50 (nM) CYP2C9.
Where [4] appears, read: human liver microsomes 0.1 mg/mL, 10 μM phenacetin, 10 min at 37° C., 6 concentrations up to 10 μM, read-out: IC50 (nM) CYP1A2.
[5] abbreviates: human liver microsomes 0.1 mg/mL, read-out: IC50 (nM) CYP3A4.

T1 sequence (P10635 whole entry): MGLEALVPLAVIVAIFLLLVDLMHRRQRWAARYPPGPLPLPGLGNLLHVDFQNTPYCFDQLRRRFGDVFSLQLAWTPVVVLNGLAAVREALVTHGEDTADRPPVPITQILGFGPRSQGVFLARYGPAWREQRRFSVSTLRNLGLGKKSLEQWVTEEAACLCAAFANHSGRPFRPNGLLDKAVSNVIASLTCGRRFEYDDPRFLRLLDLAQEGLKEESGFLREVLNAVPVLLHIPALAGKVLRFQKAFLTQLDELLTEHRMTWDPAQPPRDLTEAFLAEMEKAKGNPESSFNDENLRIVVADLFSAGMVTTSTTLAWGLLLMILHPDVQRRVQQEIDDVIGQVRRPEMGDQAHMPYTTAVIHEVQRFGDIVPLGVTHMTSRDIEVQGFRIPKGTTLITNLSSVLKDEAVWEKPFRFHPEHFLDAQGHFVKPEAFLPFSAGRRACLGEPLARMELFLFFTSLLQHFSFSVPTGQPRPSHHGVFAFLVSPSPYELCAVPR
T5 sequence (P08684 whole entry): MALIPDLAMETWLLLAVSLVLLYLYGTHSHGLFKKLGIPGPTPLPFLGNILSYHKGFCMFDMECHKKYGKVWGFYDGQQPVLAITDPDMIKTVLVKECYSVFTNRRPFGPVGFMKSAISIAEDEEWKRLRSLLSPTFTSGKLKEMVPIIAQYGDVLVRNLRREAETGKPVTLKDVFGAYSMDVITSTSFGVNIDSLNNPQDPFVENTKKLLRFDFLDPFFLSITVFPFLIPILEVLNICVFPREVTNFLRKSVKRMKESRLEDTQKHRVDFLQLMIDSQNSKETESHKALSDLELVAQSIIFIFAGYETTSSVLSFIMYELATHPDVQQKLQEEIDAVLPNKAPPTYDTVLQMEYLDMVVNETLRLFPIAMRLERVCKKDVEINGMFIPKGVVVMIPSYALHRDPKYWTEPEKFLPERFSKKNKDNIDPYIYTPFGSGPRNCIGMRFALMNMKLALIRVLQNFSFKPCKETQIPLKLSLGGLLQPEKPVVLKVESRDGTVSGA
T3 sequence (P11712 whole entry): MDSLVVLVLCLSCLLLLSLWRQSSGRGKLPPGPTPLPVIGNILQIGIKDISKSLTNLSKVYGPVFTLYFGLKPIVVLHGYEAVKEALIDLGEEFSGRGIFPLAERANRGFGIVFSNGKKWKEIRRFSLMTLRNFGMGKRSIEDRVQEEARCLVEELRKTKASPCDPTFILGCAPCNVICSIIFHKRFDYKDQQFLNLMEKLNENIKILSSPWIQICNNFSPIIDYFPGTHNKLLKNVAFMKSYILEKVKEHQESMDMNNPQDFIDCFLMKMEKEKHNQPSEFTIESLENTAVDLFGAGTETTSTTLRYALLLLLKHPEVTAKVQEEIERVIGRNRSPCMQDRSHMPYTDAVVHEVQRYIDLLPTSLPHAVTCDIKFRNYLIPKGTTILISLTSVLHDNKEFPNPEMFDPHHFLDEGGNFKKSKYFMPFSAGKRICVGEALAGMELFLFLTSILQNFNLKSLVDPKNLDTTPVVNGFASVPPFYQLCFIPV
T2 sequence (P33261 whole entry): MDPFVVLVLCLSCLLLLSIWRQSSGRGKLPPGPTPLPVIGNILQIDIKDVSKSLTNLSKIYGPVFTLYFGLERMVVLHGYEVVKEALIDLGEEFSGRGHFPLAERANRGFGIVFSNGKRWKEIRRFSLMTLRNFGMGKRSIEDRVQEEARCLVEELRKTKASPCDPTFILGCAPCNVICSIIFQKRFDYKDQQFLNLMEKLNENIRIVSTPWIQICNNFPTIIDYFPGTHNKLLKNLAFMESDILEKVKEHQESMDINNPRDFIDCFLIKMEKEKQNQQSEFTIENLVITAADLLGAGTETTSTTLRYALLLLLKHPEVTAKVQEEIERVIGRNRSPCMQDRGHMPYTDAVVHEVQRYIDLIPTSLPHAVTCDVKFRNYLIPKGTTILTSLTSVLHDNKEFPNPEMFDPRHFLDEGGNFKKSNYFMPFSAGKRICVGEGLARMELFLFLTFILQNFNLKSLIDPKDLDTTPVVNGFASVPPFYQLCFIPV
Procedure for CYP1A2: (§1) Determination of IC50 in a Cocktail Assay for CYPs 1A2, 2C9, 2C19, 2D6 and 3A4
(§2) This assay was performed in a standard 96-well plate design. […] The incubation substrate mix contains 10 μM phenacetin (1A2), 5 μM diclofenac (2C9), 30 μM mephenytoin (2C19), 5 μM dextromethorphan (2D6) and 2 μM midazolam (3A4), 0.1 mg/mL protein human liver microsomes (BD Gentest), 1 mM NAPDH, 3.3 mM MgCl2 and 100 mM potassium phosphate buffer (pH 7.4). The production of the metabolite of each probe substrate was determined after incubation for 10 min at 37° C. Quantitation of the metabolite peak area ratio against an internal standard (tolbutamide) was determined by LC/MS/MS analysis following acetonitrile treatment of the incubations.
(§3) Samples were analyzed in the MRM mode with a SCIEX API-4000 mass spectrometer (Applied Biosystems, Foster City, Calif.), with a Shimadzu LC-20 AD pump (Shimadzu corporation, Kyoto, JP) and a CTC PAL autosampler (Agilent Technologies, Switzerland). A Phenomenex, Luna, 5 μm, 100 A, 2.00×30 mm HPLC column was used for the separation. The mobile phases were: (A) 0.1% formic acid in water and (B) 0.1% formic acid in acetonitrile. The binary gradient was as follows.
(§4) The mass spectrum parameters were as follows:
(§5) The LC/MS/MS parameters for the analytes were as follows.
(§6) The peak area ratio of the analyte to the internal standard was used to quantify the metabolite. The values of peak area ratios in the presence of test compound were compared to those of maximum or minimum controls and were expressed as % inhibition by interpolating between the maximum and minimum peak area ratios. Incubations with no inhibitor were defined as the maxima.
(§7) The following equation was used to calculate the % inhibition: [1−[(X−Low control)/(High control−Low control)]]*100
(§8) For the IC50 calculation, SigmaPlot was used to plot the mean % inhibition versus the test compound concentrations and for non-linear regression analysis of the data. Depending on the range of data points defining the inhibition curve, the data may have been fit to the 4-parameter logistic equation.
Procedure for CYP2D6: as §1, §2, §3, §4, §5, §6, §7, §8

Take `C[C@H](c1ccc(C#N)cc1)n1cncc1CN1CCN(c2ccccc2)C(C(=O)N2CCCCC2)C1` (single isomer, unassigned) [Compound 45a]: the IC50 (as a rule, the concentration needed to halve the response being measured) was more than 10000 nM at CYP2D6 (setting [1]); 5500 nM on CYP2C19 (setting [2]); 7770 nM at CYP2C9 (setting [3]); more than 10000 nM at CYP1A2 (setting [4]); 12 nM at CYP3A4 (setting [5]).
`C[C@H](c1ccc(C#N)cc1)n1cncc1CN1CCN(c2ccccc2)C(C(=O)N2CCCCC2)C1` (single isomer, unassigned) [Compound 45b]: the IC50 on CYP2D6 (setting [1]) was more than 10000 nM; on CYP2C19 (setting [2]) it was 5180 nM; on CYP2C9 (setting [3]), 4000 nM; at CYP1A2 (setting [4]) it was more than 10000 nM; at CYP3A4 (setting [5]), 20 nM.
Consider `C[C@H](c1ccc(F)cc1)n1cncc1CN1CCN(C(=O)c2ccccc2)C(c2ccccc2)C1` (single isomer, unassigned) [Compound 50a], for which the IC50 on CYP2D6 (setting [1]) was 4000 nM; at CYP2C19 (setting [2]), 4330 nM; on CYP2C9 (setting [3]) it was 4360 nM; on CYP1A2 (setting [4]), more than 10000 nM; at CYP3A4 (setting [5]), 16 nM.
The corresponding values for `C[C@H](c1ccc(F)cc1)n1cncc1CN1CCN(C(=O)c2ccccc2)C(c2ccccc2)C1` (single isomer, unassigned) [Compound 50b] are more than 10000 nM, 4400 nM, 1280 nM, more than 10000 nM and 5 nM.
On to `C[C@H](c1ccc(F)cc1)n1cncc1CN1CCN(C(=O)C2CCOCC2)C(c2ccccc2)C1` (single isomer, unassigned) [Compound 52a], for which the IC50 on CYP2D6 (setting [1]) was more than 10000 nM; on CYP2C19 (setting [2]), 8490 nM; at CYP2C9 (setting [3]), more than 10000 nM; at CYP1A2 (setting [4]) it was more than 10000 nM; at CYP3A4 (setting [5]), 7 nM.
As for `C[C@H](c1ccc(F)cc1)n1cncc1CN1CCN(C(=O)C2CCOCC2)C(c2ccccc2)C1` (single isomer, unassigned) [Compound 52b], the IC50 at CYP2D6 (setting [1]) was more than 10000 nM; on CYP2C19 (setting [2]), 3670 nM; at CYP2C9 (setting [3]), 6200 nM; on CYP1A2 (setting [4]) it was more than 10000 nM; at CYP3A4 (setting [5]) it was 27 nM.
As to `CCC1(C#N)CCN(Cc2cncn2[C@H](C)c2ccc(F)cc2)CC1` [Compound 1, (R)-4-Ethyl-1-((1-(1-(4-fluorophenyl)ethyl)-1H-imidazol-5-yl)methyl)piperidine-4-carbonitrile], the IC50 on CYP2D6 (setting [1]) was more than 10000 nM; on CYP2C19 (setting [2]), 6220 nM; at CYP2C9 (setting [3]), 7370 nM; at CYP1A2 (setting [4]) it was more than 10000 nM; on CYP3A4 (setting [5]) it was 20 nM.
`CC(C)C1(C#N)CCN(Cc2cncn2[C@H](C)c2ccc(F)cc2)CC1` [Compound 2, (R)-1-((1-(1-(4-fluorophenyl)ethyl)-1H-imidazol-5-yl)methyl)-4-isopropylpiperidine-4-carbonitrile]: the IC50 is more than 10000 nM at CYP2D6 (setting [1]); more than 10000 nM at CYP2C19 (setting [2]); more than 10000 nM on CYP2C9 (setting [3]); more than 10000 nM on CYP1A2 (setting [4]); 18 nM at CYP3A4 (setting [5]).
For `C[C@H](c1ccc(F)cc1)n1cncc1CN1CCC(C)(C#N)CC1` [Compound 3, (R)-1-((1-(1-(4-fluorophenyl)ethyl)-1H-imidazol-5-yl)methyl)-4-methylpiperidine-4-carbonitrile], the IC50 on CYP2D6 (setting [1]) was 8710 nM; at CYP2C19 (setting [2]), more than 10000 nM; on CYP2C9 (setting [3]) it was more than 10000 nM; on CYP1A2 (setting [4]) it was more than 10000 nM; on CYP3A4 (setting [5]) it was 37 nM.
In the case of `CC1(C#N)CCN(Cc2cncn2Cc2nc3ccccc3s2)CC1` [Compound 4, 1-((1-(benzo[d]thiazol-2-ylmethyl)-1H-imidazol-5-yl)methyl)-4-methylpiperidine-4-carbonitrile], the IC50 was more than 10000 nM on CYP2D6 (setting [1]); 2680 nM on CYP2C19 (setting [2]); 3270 nM on CYP2C9 (setting [3]); more than 10000 nM on CYP1A2 (setting [4]); 58 nM at CYP3A4 (setting [5]).
With `C[C@H](c1ccc(F)cc1)n1cncc1CN1CCC(C#N)(C2CCCC2)CC1` [Compound 5, (R)-4-cyclopentyl-1-((1-(1-(4-fluorophenyl)ethyl)-1H-imidazol-5-yl)methyl)piperidine-4-carbonitrile], the IC50 turned out to be 7330 nM on CYP2D6 (setting [1]); 3740 nM on CYP2C19 (setting [2]); 3250 nM at CYP2C9 (setting [3]); 5570 nM at CYP1A2 (setting [4]); 15 nM on CYP3A4 (setting [5]).
On to `CCCC1(C#N)CCN(Cc2cncn2[C@H](C)c2ccc(F)cc2)CC1` [Compound 6, (R)-1-((1-(1-(4-fluorophenyl)ethyl)-1H-imidazol-5-yl)methyl)-4-propylpiperidine-4-carbonitrile], for which the concentration for half-maximal inhibition (IC50) on CYP2D6 (setting [1]) is 4960 nM; at CYP2C19 (setting [2]), 7920 nM; at CYP2C9 (setting [3]), 5670 nM; at CYP1A2 (setting [4]), more than 10000 nM; at CYP3A4 (setting [5]) it was 27 nM.
The corresponding values for `C[C@H](c1ccc(F)cc1)n1cncc1CN1CCC(C#N)(C2CCOCC2)CC1` [Compound 7, (R)-1-((1-(1-(4-fluorophenyl)ethyl)-1H-imidazol-5-yl)methyl)-4-(tetrahydro-2H-pyran-4-yl)piperidine-4-carbonitrile] are 8480 nM, more than 10000 nM, 8170 nM, more than 10000 nM and 21 nM.
Turning to `CC(C)CC1(C#N)CCN(Cc2cncn2[C@H](C)c2ccc(F)cc2)CC1` [Compound 8, (R)-1-((1-(1-(4-fluorophenyl)ethyl)-1H-imidazol-5-yl)methyl)-4-isobutylpiperidine-4-carbonitrile], the IC50 at CYP2D6 (setting [1]) came to 2490 nM; at CYP2C19 (setting [2]), 3250 nM; on CYP2C9 (setting [3]), 2530 nM; at CYP1A2 (setting [4]), 9180 nM; on CYP3A4 (setting [5]) it was 22 nM.
In the case of `CCc1noc(C2(C)CCN(Cc3cncn3[C@H](C)c3ccc(F)cc3)CC2)n1` [Compound 9, (R)-3-ethyl-5-(1-((1-(1-(4-fluorophenyl)ethyl)-1H-imidazol-5-yl)methyl)-4-methylpiperidin-4-yl)-1,2,4-oxadiazole], the concentration for half-maximal inhibition (IC50) on CYP2D6 (setting [1]) was 2520 nM; at CYP2C19 (setting [2]) it was 2270 nM; on CYP2C9 (setting [3]) it was 2510 nM; at CYP1A2 (setting [4]), more than 10000 nM; on CYP3A4 (setting [5]) it was 21 nM.
The matching figures for `Cc1noc(C2(C)CCN(Cc3cncn3[C@H](C)c3ccc(F)cc3)CC2)n1` [Compound 10, (R)-5-(1-((1-(1-(4-fluorophenyl)ethyl)-1H-imidazol-5-yl)methyl)-4-methylpiperidin-4-yl)-3-methyl-1,2,4-oxadiazole]: 2100 nM, 7020 nM, 2330 nM, more than 10000 nM and 17 nM.
The corresponding values for `CC(C)c1noc(C2(C)CCN(Cc3cncn3[C@H](C)c3ccc(F)cc3)CC2)n1` [Compound 11, (R)-5-(1-((1-(1-(4-fluorophenyl)ethyl)-1H-imidazol-5-yl)methyl)-4-methylpiperidin-4-yl)-3-isopropyl-1,2,4-oxadiazole] are 5990 nM, 3310 nM, 2880 nM, 5070 nM and 21 nM.
For `N#Cc1ccc(C2(n3cncc3CN3CCC(C#N)(c4ccc(F)cc4)CC3)CC2)cc1` [Compound 12, 1-((1-(1-(4-cyanophenyl)cyclopropyl)-1H-imidazol-5-yl)methyl)-4-(4-fluorophenyl)piperidine-4-carbonitrile], the IC50 turned out to be 6360 nM on CYP2D6 (IC50 (nM) CYP2D6, human liver microsomes 0.1 mg/mL); 3980 nM at CYP2C19 (IC50 (nM) CYP2C19, human liver microsomes 0.1 mg/mL); 5320 nM against CYP2C9 (IC50 (nM) CYP2C9, human liver microsomes 0.1 mg/mL); 1470 nM at CYP1A2; 50 nM against CYP3A4 (IC50 (nM) CYP3A4, human liver microsomes 0.1 mg/mL).
As for `C[C@H](c1ccc(F)cc1)n1cncc1CN1CCC(C#N)(c2ccccn2)CC1` [Compound 13, (R)-1-((1-(1-(4-fluorophenyl)ethyl)-1H-imidazol-5-yl)methyl)-4-(pyridin-2-yl)piperidine-4-carbonitrile], the half-maximal inhibitory concentration (IC50) is more than 10000 nM on CYP2D6 (setting [1]); 6400 nM at CYP2C19 (setting [2]); 4670 nM at CYP2C9 (setting [3]); more than 10000 nM on CYP1A2 (setting [4]); 10 nM at CYP3A4 (setting [5]).
